In ChEMBL document CHEMBL1156829 (Proc Natl Acad Sci U S A, 2008):

Key:
Plasmodium falciparum [1] = experiment: NOVARTIS: Inhibition of Plasmodium falciparum 3D7 (drug-susceptible) proliferation in erythrocyte-based infection assay; type: functional, organism-based; details: Plasmodium falciparum, 3D7
Plasmodium falciparum [2] = experiment: NOVARTIS: Inhibition of Plasmodium falciparum W2 (drug-resistant) proliferation in erythrocyte-based infection assay; type: functional, organism-based; details: Plasmodium falciparum, W2; read-out: EC50
[3] = NOVARTIS: Cytotoxicity against human hepatocellular carcinoma cell line (Huh7); type: toxicity, cell-based, Huh-7; details: Huh7 cells (hepatocellular carcinoma cell line)

Row | SMILES | EC50 (Plasmodium falciparum [1]) [nM] | EC50 (Plasmodium falciparum [2]) [nM] | CC50 [3] [nM]
1 | C=CC1CN2CCC1CC2C(O)c1ccnc2ccccc12 (stereo unspecified) | 43.5 | 84.1 | > 100000
2 | Nc1ccnc2cc(Cl)ccc12 | 415 | 57.6 | 72000
3 | CC(C)C[C@H](NC(=O)N1CCOCC1)C(=O)N[C@H](/C=C/S(=O)(=O)c1ccccc1)CCc1ccccc1 | 210 | 37.7 | 48800
4 | C=CCNc1cc(-c2ccccn2)nc(-c2ccccn2)n1 | 125 | 192 | > 10000
5 | COc1cc(C(=O)NC2CC2)ccc1OC1CCN(CC(c2ccccc2)c2ccccc2)CC1 | 44.4 | 18.5 | 23500
6 | c1ccc(CCNc2cccc3ccccc23)cc1 | 128 | < 7.52 | > 10000
7 | COc1cncc(-c2cncc(-c3ccc(C)cc3)n2)c1 | 94.9 | 85.2 | > 100000
8 | CCOC(=O)C(=O)N1c2ccccc2-c2c(ssc2=S)C1(C)C | 91.6 | 73.5 | > 100000
9 | CC1CCC2C(C)C(=O)OC3OC(C)C4CC1C32OO4 (stereo unspecified) | 19.1 | 7.62 | > 10000
10 | CCOC(=O)C1=C(C)NC2=C(C(=O)CC(c3ccc(OC)c(OC)c3)C2)C1c1cccc(Cl)c1 (stereo unspecified) | 88.2 | 55.6 | > 74600
11 | CCOc1ccc(N(CC)S(=O)(=O)c2cc(Br)cc3c2N(C(C)=O)CC3)cc1 | 125 | 76.1 | > 100000
12 | COc1cccc(-c2ccc(O)c(CNC3CCCCCCC3)c2)n1 | 71.9 | 20.3 | 23100
13 | C=C[C@H]1CN2CC[C@H]1C[C@H]2[C@H](OC(=O)c1ccc(F)cc1)c1ccnc2ccccc12 | 777 | < 8.08 | > 10000
14 | COc1cccc(-c2ccc(O)c(CNC(C)c3cccc4ccccc34)c2)n1 (stereo unspecified) | 285 | 48.4 | 61200
15 | CCCC(C)C(C(=O)NCc1ccccc1)N1C(=O)c2cc(NC(C)=O)ccc2NC(=O)[C@@H]1c1ccccc1 (stereo partly specified) | > 1250 | < 7.12 | 9210
16 | O=S(=O)(NCCCCNc1ccnc2cc(Cl)ccc12)c1ccc2ccccc2c1 | 268 | 4.95 | 6410
17 | Oc1ccc(-c2ccccc2)cc1CN1CCCCCC1 | 242 | 53.7 | 67400
18 | COc1ccc(Cl)cc1NC(=O)CSC1=C(C#N)C(c2ccccc2)C(C(=O)Nc2ccccc2)=C(C)N1 (stereo unspecified) | 3760 | 1910 | > 100000
19 | Cc1ccc(-c2c3c(nc4sc(C(=O)Nc5cccc(C)c5)c(N)c24)CCC3)cc1 | 1010 | 82.7 | > 100000
20 | COc1cc2nc(NCc3ccccn3)n3nc(-c4ccccc4)nc3c2cc1OC | 3770 | 1910 | > 100000
21 | CCOC(=O)C1=C(CC)NC2=C(C(=O)CCC2)C1c1ccc(N(C)C)cc1 (stereo unspecified) | 8700 | 1910 | > 100000
22 | COc1ccc(C2CC(=O)C3=C(C2)NC(C)=C(C(=O)OC2CCCC2)C3c2ccccc2F)cc1OC (stereo unspecified) | 40.4 | 12 | 14900
23 | CCOc1ccc(S(=O)(=O)N=C2C=C(Nc3ccc(O)cc3)C(=O)c3ccccc32)cc1 | 158 | 135 | 7050
24 | Cc1cccc[n+]1CCCCCCCCCC[n+]1ccccc1C | 102 | 81.8 | > 100000
25 | O=[N+]([O-])c1ccc(N2CCCN(C(=S)Nc3ccccc3)CC2)nc1 | 91.5 | 80.1 | > 100000
26 | COc1cncc(-c2cncc(-c3ccc(Oc4ccccc4)cc3)n2)c1 | 43.9 | 79.8 | > 100000

Row | SMILES | EC50 (Plasmodium falciparum [1]) [nM] | EC50 (Plasmodium falciparum [2]) [nM] | CC50 [3] [nM]
27 | CCOC(=O)C1=C(C)NC2=C(C(=O)C(C(=O)OCC)C(c3ccccc3OC)C2)C1c1ccc(OC)c(OC)c1 (stereo unspecified) | 83.1 | 74.4 | > 100000
28 | CCOC(=O)c1cnc2c(C)cccc2c1Nc1ccc(C(C)=O)cc1 | 119 | 84.6 | > 100000
29 | COc1cc(CN(CCCN2CCOCC2)C(=O)Nc2cccc(C)c2)ccc1OCc1ccccc1 | > 1250 | 8.39 | > 10000
30 | CC(C)(C)CC(=O)NCc1ccc(OC2CCN(CC(c3ccccc3)c3ccccc3)CC2)cc1 | 1160 | < 8.77 | > 10000
31 | Cc1ccc2nc(Cl)c3cc(C(=O)Nc4ccc(CN5CCC(C)CC5)cc4)sc3c2c1 | 45.1 | 64.9 | > 75800
32 | CC(C)CCN(CCC(C)C)CC(O)Cn1c2ccc(Cl)cc2c2cc(Cl)ccc21 (stereo unspecified) | 292 | 82.8 | > 100000
33 | Cc1ccn2c(NC(C)(C)CC(C)(C)C)c(-c3ccccc3OC(=O)c3cccc(F)c3)nc2c1 | 581 | < 8.37 | > 10000
34 | O=C(NC1CCN(CC(O)CN(Cc2ccccc2)S(=O)(=O)c2ccccc2)C1)c1cccc2ccccc12 (stereo unspecified) | 82.5 | < 8.3 | > 10000
35 | Oc1ccc(CN2CCCCC2)nc1-c1ccccc1 | 241 | 86.6 | > 100000
36 | Cc1ccn2c(NC(C)(C)CC(C)(C)C)c(-c3ccccc3OC(=O)C3CCCC3)nc2c1 | 1010 | < 8.29 | > 10000
37 | O=C(NC1CCN(CC(O)CN(Cc2ccccc2)S(=O)(=O)c2ccccc2)C1)c1ccsc1 (stereo unspecified) | 120 | < 8.62 | > 10000
38 | CCOc1ccc(N(C(C)=O)C2=C(N3CCN(C)CC3)C(=O)c3ccccc3C2=O)cc1 | 78.7 | 10.9 | 12900
39 | COc1ccc(C2CC(=O)C3=C(C2)NC(C)=C(C(=O)OC2CCCC2)C3c2ccc(Cl)cc2)cc1OC (stereo unspecified) | 29 | 16.7 | 21600
40 | O=c1c2ccccc2nc(C=Cc2ccc([N+](=O)[O-])o2)n1-c1ccc(Br)cc1 | > 12300 | 1920 | > 100000
41 | COc1ccc(C(=O)Oc2ccccc2-c2nc3ccccn3c2NC(C)(C)CC(C)(C)C)cc1 | > 1600 | 7.51 | > 10000
42 | CC[n+]1c(/C=C/c2ccc(Cl)cc2)ccc2ccccc21 | 60.8 | < 8.16 | > 10000
43 | Cc1ccn2c(NC(C)(C)CC(C)(C)C)c(-c3ccccc3OC(=O)c3ccc(F)cc3)nc2c1 | 897 | 8.7 | > 10000
44 | CC(=O)Nc1ccc2c(c1)CCCC2 | 1130 | 191 | > 10000
45 | C=CC1CN2CCC1CC2[C@H](O)c1ccnc2ccc(OC)cc12 (stereo partly specified) | 11.2 | 45.3 | 56500
46 | COC(=O)C1=C(C)NC2=C(C(=O)CC(c3ccc(OC)c(OC)c3)C2)C1c1ccccc1Br (stereo unspecified) | 136 | 73.1 | > 100000
47 | CO[C@H]1[C@H](C)[C@@H]([C@H]2CC[C@H]([C@@H]3CC[C@H]([C@@]4(C)O[C@]5(O[C@H](C[C@@H]6O[C@](O)([C@@H](C)C(=O)O)[C@@H](C)[C@H](O[C@H]7CC[C@H](OC)[C@@H](C)O7)[C@@]6(C)OC)C[C@@H](OC)[C@H]5C)[C@H](C)[C@H]4OC)O3)O2)O[C@](C)(O)[C@@H]1C | 13.3 | 1.93 | 2420
48 | C[C@H](Nc1cncc(-c2ccc(Cl)cc2)n1)c1ccccc1 | 53.7 | 56.2 | 71000
49 | CC(C)NC(=O)N1CCN(C(=O)C(Cc2c[nH]c3ccccc23)NC(=O)Nc2cccc(Cl)c2Cl)CC1C (stereo unspecified) | 27.2 | 43.9 | 57700
50 | CCOC(=O)C1=C(C)NC(=Cc2cc(C)n(-c3ccc(C)cc3C)c2C)C1=O | 64.4 | 78.5 | > 100000
51 | COC(=O)c1c(-c2c(F)cccc2Cl)noc1/C=C/Nc1ccccc1 | 272 | 191 | > 10000
52 | Cc1ccc2c(c1)c(-c1ccccc1)c(-c1ccccc1)n2CC(O)CN1CCN(Cc2ccccc2)CC1 (stereo unspecified) | 824 | 84.5 | > 100000
